Test system: HPV16 PsVs
Assay: HPV16 PsV infection of CHO mutant cells
Type: cell-based
Details: 3 μM, 1 h pre-treatment, 24 h
Procedure: FIG. 7. HPV binding and infection of CHO mutant cells in the presence of polyR. CHO mutant pgsA-745 cells (GAG deficient) and CHO mutant pgsD-677 cells (HS deficient) were grown in Ham's F12 medium supplemented with 10% fetal bovine serum and 1% Glutamax (Invitrogen, Thermo Fisher Scientific, Inc., Carlsbad, Calif.). (A) Cells were incubated with 3 μM polyR in the medium for 30 minutes before adding HPV16 PsVs and incubating at 4° C. for one hour. After extensive washing with PBS, cells were lysed and analyzed for the content of L1, as described in FIG. 4A. (B) Semi-confluent CHO-pgsA were treated with 3 μM polyR for one hour prior to adding HPV16 PsVs. Infection was scored at 24 hours post infection as described in FIG. 1. (C) Semi-confluent CHO-pgsD cells were treated with 3 μM polyR for one hour prior to adding HPV16 PsVs. Infection was scored at 24 hours post infection as described in FIG. 1.
To test the effects of polyR on cells that differentially express heparan sulfate versus heparan sulfonated proteoglycans, like glycosaminoglycans (GAGs), genetically mutant clones of Chinese hamster ovary (CHO) cell lines were used. […] First, the effect of polyR on HPV16 PsV binding to these mutant cells was measured.

poly-L-arginine [polyR]
reduction of HPV16 infection (CHO pgsA-745 cells): 63%
reduction of HPV16 infection (CHO pgsD-677 cells): 92%

From patent publication US11045519B2, “Arginine-rich polypeptide compositions and methods of using same” (UNM Rainforest Innovations, priority 2017, dated 2021)
